What was measured:
[1] = test system: potassium-evoked release of [^3H]-noradrenaline; experiment: potassium-evoked release of [^3H]-noradrenaline from human neocortical slices (superfusion); assay type: cell-based; details: human neocortex slices
Description: (§1) The effects of GBP and GBP-L were compared by a very similar approach using rat and human neocortical slices.
(§2) Note that the deviations indicate confidence intervals (CI95), not standard errors.

[2] = test system: retinal gangliocytes (neurons in the ganglion cell layer); assay type: in vivo
Procedure: The following results were found:
10 rats were treated with 0.9% NaCl i.p. at the start of a unilateral one-hour intraocular pressure increase. After 6 hours, the treatment was again carried out with 0.9% NaCl i.p. After 14 days, the rats were sacrificed, and the retinal gangliocytes were investigated. Compared with the respective control eye, only 17.4% (±4%) of the retinal gangliocytes had survived.
In the test group, likewise of 10 rats, 50 mg/kg 8-azaspiro[5,4]decan-9-one was administered i.p. at the start of a unilateral one-hour intraocular pressure increase. The compound was administered again in a dose of 50 mg/kg 6 hours after the intraocular pressure increase. After 14 days, the rats were sacrificed, and the retinal gangliocytes were investigated. It emerged that, compared with the respective control eye, 35% (±7%) of the retinal gangliocytes survived.
The method in brief: Retinal ischemia in the left eye was induced by elevating the intraocular pressure above systolic blood pressure for one hour. Retinal ischemia was confirmed by whitening of the fundus. In the first experiment 10 rats received 50 mg/kg GBP intraperitoneally immediately prior to ischemia and 50 mg/kg 6 hours after reperfusion, 10 rats received 50 mg/kg GBP-L i.p. immediately prior to ischemia and 50 mg/kg 6 hours after reperfusion, and 10 rats received vehicle alone. Ischemic damage was histologically quantified 14 days after ischemia: Both eyes were enucleated and immersed in 4% buffered formaldehyde for 24 hours. Retinal wholemounts were made and stained with cresyl violet, (0.1%, pH 4.5 for 30 min). Ischemic damage was quantified by counting the number of neurons in the ganglion cell layer in a masked fashion. […] This control eye was not subjected to ischemia.
Statistically, the ganglion cell numbers were evaluated as follows: In contrast to the usual ANOVA where the ratio of the mean squares between the treatment groups and the error mean square is used in the F-statistic, the nested design applied here requested another approach. Apart from the factor medication, there were three other sources of variation in our example, (1) the rat, (2) the eye, and (3) the replications of cell counting within each eye. To test for the medication effect the mean square for rat within medication has to be used as denominator. The variability of the eye is then contained in both the numerator (with all contributions to the variance) and the denominator (with the contributions to the variance except that of the factor medication). Thus, the variability of the eye is eliminated in the end and the variance of the factor medication is assessed appropriately in the F-test. The used model was: cell counts=med rat (med) eye(med*rat).
In order to evaluate the therapeutic window of GBP-L as an antiischemic drug (Pulsinelli et al. 1997) its time-effect relationship was tested at 75 mg/kg given twice prior to or after the end of ischemia with an interval of 6 hours.
The dose dependence of the neuroprotective effect of GBP-L was established using 25 mg/kg, 50 mg/kg and 75 mg/kg (see FIG. 7) given twice three hours and nine hours after the end of ischemia.

[3] = test system: extracellular glutamate level; experiment: superfusion experiments on rat brain slices (striatum), glutamate in superfusate by HPLC; assay type: cell-based
Procedure: A solution of gabapentin (100 μM) in physiological buffer (composition below) with a pH of 7.4 was prepared and irradiated with ultraviolet light (260 and 330 nanometers) at 37° C. for two hours. As described in Kearney A. S. et al., International Journal of Pharmaceutics, 78 (1992), 25–34, this slowly produces the lactam 8-azaspiro[5,4]decan-9-one. Because of the slow reaction rate, a yield of about 1% is assumed in accordance with Kearney et al. (1992), which corresponds to a 1 μM solution.
The activity of this solution in reducing the extracellular glutamate level was shown by means of superfusion experiments on rat brain slices. Slices with a thickness of 350 μm from the rat striatum were used for this. In each case, two slices were employed in a superfusion chamber with an extremely small dead volume, about 100 μl. Physiological buffer (concentrations in mM: NaCl 121, KCl 1.8, CaCl2, 1.3, MgSO4 1.2, NaHCO3 25, […] 1.2, glucose 11, pH 7.4, 95% O2/5% CO2-saturated) is then passed over them at 37° C. After a preliminary perfusion, which serves in particular to remove tissue particles and amino acids released by the injury to the tissue, superfusate fractions are collected at a flow rate of 400 to 800 μl every five minutes. […] The superfusates obtained are filtered (0.45 μm pore size) and the amino acid concentrations are determined by HPLC. […]

[4] = test system: mitochondrial KATP channels; experiment: mitochondrial KATP channels, depression of the mitochondrial membrane potential; assay type: biochemical
Procedure: The mode of action of GBP-L and GBP was tested with regard to mitochondrial KATP channels (Szewczyk and Marban 1999). […] Effects of GBP-L on the mitochondrial membrane potential were already seen at 5 μM. […] Thus, the neuroprotective effect of GBP-L seems to be mediated predominantly through mitochondrial KATP channels.

[5] = test system: potassium-evoked release of [^3H]-noradrenaline; experiment: potassium-evoked release of [^3H]-noradrenaline from rat neocortex slices (superfusion); assay type: cell-based; details: rat neocortical slices
Description: as §1, §2

[6] = test system: electrically evoked release of [^3H]-NA; experiment: electrically evoked release of [^3H]-NA from human brain slices; assay type: cell-based; details: quasi-physiological release
Description: Note that the deviations indicate confidence intervals (CI95), not standard errors. In this model, GBP and its lactam seem equipotent. GBP and GBP-L are ineffective on the quasi-physiological, electrically evoked release of [^3H]-NA from both rat and human brain slices (not shown).

Row | Structure (SMILES) | K^+-evoked [^3H]-NA release (in words) [1] | neuroprotective effect / number of surviving neurons (in words) ([2]; 50 mg/kg i.p. immediately prior to ischemia and 6 hours after reperfusion, 14 days, listed as gabapentin) | rate of surviving neurons ([2]; 50 mg/kg i.p. twice, ganglion cell layer neurons, 14 days after ischemia, pure ischemia 17.5%) [%] | difference in glutamate between treated and comparative samples ([3]; gabapentin solution (100 μM) not irradiated, no lactam) | activity at mitochondrial KATP channels (in words) [4] | K^+-evoked [^3H]-NA release (in words) [5] | electrically evoked release of [^3H]-NA (in words) [6] | retinal gangliocytes survived compared with the respective control eye ([2]; 50 mg/kg i.p. at start of one-hour intraocular pressure increase and again 6 hours after, 14 days, NaCl group 17.4%) [%] | mortality in the 14 days after the test ([2]; 50 mg/kg i.p. twice, 10 rats) | time-effect relationship: neuroprotective action maintained after recirculation ([2]; 75 mg/kg given twice prior to or after the end of ischemia, interval 6 hours, another strain of rats) | slope of regression line of dose-effect relationship ([2]; 25, 50 and 75 mg/kg given twice, three and nine hours after the end of ischemia) | extracellular glutamate concentration found in superfusate ([3]; rat striatum slices flushed with approximately 1 μM solution, control tests 0.24 μM) [µM] | concentration at which effects on the mitochondrial membrane potential were already seen [4] [µM] | EC50 ([4]; read-out: half-maximal depression of the mitochondrial membrane potential) [µM]
1 | NCC1(CC(=O)O)CCCCC1 [GBP, gabapentin, reference compound] | inhibited similarly | no protective effect whatever | 17.5 | no difference could be found | hardly effective | inhibited similarly | ineffective |  |  |  |  |  |  | 
2 | O=C1CC2(CCCCC2)CN1 [GBP-L, 8-azaspiro[5,4]decan-9-one] | inhibited similarly |  |  |  | potent activator | inhibited similarly | ineffective | 35 | no animal died | maintained for more than three hours after recirculation | 0.41 | 0.12 | 5 | 85

Reference: US6984659B2, “2-pyrrolidinone derivatives substituted at position 4 for reducing the extracellular glutamate level” (priority 1997, dated 2006)
